The text below walks through data of article PMC10035951, “Selenium-analogs based on natural sources as cancer-associated carbonic anhydrase isoforms IX and XII inhibitors” (Journal of Enzyme Inhibition and Medicinal Chemistry, 2023).

One test addresses T1, hCA I (Homo sapiens, UniProt P00915).
T1 construct: made in house
Description: CA catalysed CO2 hydration, stopped-flow inhibition. It counts as biochemical. The settings on record: recombinant hCA I, stopped-flow CO2 hydration, 15 min preincubation; read-out: Ki hCA I. Here is the method:
(§1) The uncatalyzed rates were determined in the same manner and subtracted from the total observed rates. Stock solutions of inhibitor (0.1 mM) were prepared in distilled − deionized water and dilutions up to 0.01 nM were done thereafter with the assay buffer. Inhibitor and enzyme solutions were preincubated together for 15 min at room temperature before assay to allow for the formation of the E − I complex. The inhibition constants were obtained by nonlinear least-squares methods using PRISM 3 and the Cheng − Prusoff equation, as reported earlier,[39]^,[40] and represent the mean from at least three different determinations. […] All human CA (hCA) isoforms were recombinant ones obtained in-house as reported earlier.[41]^,[42]

A further test deals with T2, hCA II (Homo sapiens, UniProt P00918).
T2 construct: made in house
The description is as above. The class given is biochemical. The settings on record: recombinant hCA II, stopped-flow CO2 hydration, 15 min preincubation; read-out: Ki hCA II. Here is the method:
as §1

Another test concerns the target T3, hCA IX (Homo sapiens, UniProt Q16790).
T3 construct: made in house
The test is described as above. The note with it: recombinant hCA IX, stopped-flow CO2 hydration, 15 min preincubation. It counts as biochemical. Here is the method:
as §1

The target of another test is T4, hCA XII (Homo sapiens, UniProt O43570).
T4 construct: made in house
The test is described as above. It counts as biochemical. The note with it: recombinant hCA XII, stopped-flow CO2 hydration, 15 min preincubation; read-out: Ki hCA XII. Here is the method: An Applied Photophysics stopped-flow instrument has been used for assaying the CA catalysed CO2 hydration activity.[38] Phenol red (at a concentration of 0.2 mM) has been used as an indicator, working at the absorbance maximum of 557 nm, with 20 mM Hepes (pH 7.5) as a buffer and 20 mM Na2SO4 (for maintaining constant the ionic strength), following the initial rates of the CA-catalysed CO2 hydration reaction for a period of 10–100 s. The CO2 concentrations ranged from 1.7 to 17 mM for the determination of the kinetic parameters and inhibition constants. […]. The uncatalyzed rates were determined in the same manner and subtracted from the total observed rates. Stock solutions of inhibitor (0.1 mM) were prepared in distilled − deionized water and dilutions up to 0.01 nM were done thereafter with the assay buffer. Inhibitor and enzyme solutions were preincubated together for 15 min at room temperature before assay to allow for the formation of the E − I complex. The inhibition constants were obtained by nonlinear least-squares methods using PRISM 3 and the Cheng − Prusoff equation, as reported earlier,[39]^,[40] and represent the mean from at least three different determinations. The enzyme concentrations were in the range 3–11 nM. All human CA (hCA) isoforms were recombinant ones obtained in-house as reported earlier.[41]^,[42]

Test [1] has as its system hCA isoforms I, II, VA, IX, and XII. The test can be described thus: CA inhibition, summary statements over all tested isoforms. The note with it: from the Ki values of Table 1. The class given is biochemical, human. Here is the method:
An Applied Photophysics stopped-flow instrument has been used for assaying the CA catalysed CO2 hydration activity.[38] Phenol red (at a concentration of 0.2 mM) has been used as an indicator, working at the absorbance maximum of 557 nm, with 20 mM Hepes (pH 7.5) as a buffer and 20 mM Na2SO4 (for maintaining constant the ionic strength), following the initial rates of the CA-catalysed CO2 hydration reaction for a period of 10–100 s. The CO2 concentrations ranged from 1.7 to 17 mM for the determination of the kinetic parameters and inhibition constants. For each inhibitor, at least six traces of the initial 5 − 10% of the reaction have been used for determining the initial velocity. The uncatalyzed rates were determined in the same manner and subtracted from the total observed rates. Stock solutions of inhibitor (0.1 mM) were prepared in distilled − deionized water and dilutions up to 0.01 nM were done thereafter with the assay buffer. Inhibitor and enzyme solutions were preincubated together for 15 min at room temperature before assay to allow for the formation of the E − I complex. The inhibition constants were obtained by nonlinear least-squares methods using PRISM 3 and the Cheng − Prusoff equation, as reported earlier,[39]^,[40] and represent the mean from at least three different determinations. The enzyme concentrations were in the range 3–11 nM. All human CA (hCA) isoforms were recombinant ones obtained in-house as reported earlier.[41]^,[42]

T4 sequence (O43570 25-354): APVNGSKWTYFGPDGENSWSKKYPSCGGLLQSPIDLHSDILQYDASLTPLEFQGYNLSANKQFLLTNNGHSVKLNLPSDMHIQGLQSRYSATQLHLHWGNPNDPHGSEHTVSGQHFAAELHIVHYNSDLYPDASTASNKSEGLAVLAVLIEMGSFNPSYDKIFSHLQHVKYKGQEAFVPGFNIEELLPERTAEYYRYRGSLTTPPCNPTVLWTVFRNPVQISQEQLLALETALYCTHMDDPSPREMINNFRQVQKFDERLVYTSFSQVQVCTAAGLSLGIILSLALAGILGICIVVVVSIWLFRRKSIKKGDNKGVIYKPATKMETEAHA
T1 sequence (P00915 whole entry): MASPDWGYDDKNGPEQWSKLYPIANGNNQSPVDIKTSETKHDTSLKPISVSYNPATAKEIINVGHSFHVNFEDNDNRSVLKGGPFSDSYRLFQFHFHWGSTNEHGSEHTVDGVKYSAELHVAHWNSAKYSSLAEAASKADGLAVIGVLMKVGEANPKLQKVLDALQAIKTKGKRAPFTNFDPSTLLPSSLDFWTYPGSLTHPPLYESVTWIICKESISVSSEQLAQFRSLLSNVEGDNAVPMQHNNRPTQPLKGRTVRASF

As usually defined, the Ki is a measure of affinity in units of concentration, obtained from inhibition or displacement. `C#CC[Se]C(=O)c1ccccc1Nc1cccc(C(F)(F)F)c1` [Compound 19b]: the Ki on hCA I is more than 100 µM; at hCA II, more than 100 µM; at hCA IX, 9.5 µM; at hCA XII, more than 100 µM. Also, the “isoform selectivity (in words)” value in test [1] was “selectivity for tumour-associated isoform IX”.
